The numbers were not newly measured in patent US9555150B2, “Absorbent articles comprising an organic zinc salt and an anti-bacterial agent or alkali metal chloride or alkaline earth metal chloride” (SCA HYGIENE PRODUCTS AB, priority 2006, dated 2017), which cites them from elsewhere.

The structures appear in SMILES notation.

The conditions of this data set: measured in water at 25° C.

For the molecule `C/C=C/C=C/C(=O)O` [sorbic acid], the pK was 4.76. On to `CC(=O)O` [Acetic acid, acetic acid], for which the pK is 4.75. Take `O=C(O)c1ccccc1` [benzoic acid]: the pK is on record as 4.19.
